According to ChEMBL document CHEMBL1909046, “DrugMatrix in vitro pharmacology data”:

What was measured:
[1] = biological target: T1, Muscarinic acetylcholine receptor M5 (Homo sapiens, UniProt P08912); type: cell membranes, CHO-K1, Membrane; further: in other assays of this panel Not Active means under 50% inhibition at 10 µM
T1 sequence (P08912 whole entry): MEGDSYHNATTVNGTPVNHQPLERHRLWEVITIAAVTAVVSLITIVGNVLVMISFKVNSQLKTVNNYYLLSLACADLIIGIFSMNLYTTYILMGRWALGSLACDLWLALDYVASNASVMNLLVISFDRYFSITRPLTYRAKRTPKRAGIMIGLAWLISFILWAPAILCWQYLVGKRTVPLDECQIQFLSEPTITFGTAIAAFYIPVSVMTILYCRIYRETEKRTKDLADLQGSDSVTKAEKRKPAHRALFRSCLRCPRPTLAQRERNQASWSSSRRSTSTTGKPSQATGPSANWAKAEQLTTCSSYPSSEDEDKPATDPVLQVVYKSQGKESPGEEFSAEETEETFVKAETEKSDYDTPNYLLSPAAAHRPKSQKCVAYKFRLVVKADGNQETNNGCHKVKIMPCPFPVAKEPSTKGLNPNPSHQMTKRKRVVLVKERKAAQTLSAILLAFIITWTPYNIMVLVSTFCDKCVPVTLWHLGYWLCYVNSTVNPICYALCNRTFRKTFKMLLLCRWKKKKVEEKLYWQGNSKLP

[2] = biological target: T2, Muscarinic acetylcholine receptor M4 (Homo sapiens, UniProt P08173); type: cell membranes, CHO-K1, Membrane; further: in other assays of this panel Not Active means under 50% inhibition at 10 µM
T2 sequence (P08173 whole entry): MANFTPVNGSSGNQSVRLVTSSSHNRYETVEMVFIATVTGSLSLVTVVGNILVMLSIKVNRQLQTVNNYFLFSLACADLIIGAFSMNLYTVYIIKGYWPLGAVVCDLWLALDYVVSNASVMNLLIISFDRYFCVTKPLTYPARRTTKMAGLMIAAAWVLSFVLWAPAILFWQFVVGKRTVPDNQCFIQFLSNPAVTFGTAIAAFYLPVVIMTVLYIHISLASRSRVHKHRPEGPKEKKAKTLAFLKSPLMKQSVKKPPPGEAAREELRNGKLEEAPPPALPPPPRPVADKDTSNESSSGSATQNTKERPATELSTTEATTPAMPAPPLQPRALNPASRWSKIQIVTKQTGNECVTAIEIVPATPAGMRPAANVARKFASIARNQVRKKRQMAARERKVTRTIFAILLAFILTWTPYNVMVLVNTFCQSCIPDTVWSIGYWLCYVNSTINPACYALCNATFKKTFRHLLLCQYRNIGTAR

[3] = biological target: T3, Alpha-2A adrenergic receptor (Homo sapiens, UniProt P08913); type: cell membranes, Sf9, Membrane; further: in other assays of this panel Not Active means under 50% inhibition at 10 µM
T3 sequence (P08913 whole entry): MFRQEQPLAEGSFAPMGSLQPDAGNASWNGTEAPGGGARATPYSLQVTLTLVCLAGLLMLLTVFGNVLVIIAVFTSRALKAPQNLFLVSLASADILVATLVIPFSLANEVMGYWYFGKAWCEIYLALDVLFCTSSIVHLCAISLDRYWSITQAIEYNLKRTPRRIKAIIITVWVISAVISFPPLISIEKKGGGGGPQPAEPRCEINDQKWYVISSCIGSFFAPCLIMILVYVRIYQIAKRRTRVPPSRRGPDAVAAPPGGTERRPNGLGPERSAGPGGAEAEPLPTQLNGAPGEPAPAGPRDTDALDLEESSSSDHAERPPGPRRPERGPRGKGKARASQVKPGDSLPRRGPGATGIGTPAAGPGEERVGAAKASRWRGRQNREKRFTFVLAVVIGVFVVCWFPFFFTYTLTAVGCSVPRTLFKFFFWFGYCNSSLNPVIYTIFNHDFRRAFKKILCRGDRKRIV

Histamine H2 receptor = Histamine H2 receptor (Homo sapiens, UniProt P25021); type: cell membranes, CHO-K1, Membrane; conditions: cho-k1; further: in other assays of this panel Not Active means under 50% inhibition at 10 µM
Carbonic anhydrase 2 = Carbonic anhydrase 2 (Homo sapiens, UniProt P00918); experiment: DRUGMATRIX: Carbonic Anhydrase II enzyme inhibition (substrate: 4-Nitrophenyl acetate (4-NPA)); type: tissue-based, Erythrocyte; conditions: erythrocyte; Not Active = under 50% inhibition at 10 µM

Chain of Histamine H2 receptor (P25021 whole entry): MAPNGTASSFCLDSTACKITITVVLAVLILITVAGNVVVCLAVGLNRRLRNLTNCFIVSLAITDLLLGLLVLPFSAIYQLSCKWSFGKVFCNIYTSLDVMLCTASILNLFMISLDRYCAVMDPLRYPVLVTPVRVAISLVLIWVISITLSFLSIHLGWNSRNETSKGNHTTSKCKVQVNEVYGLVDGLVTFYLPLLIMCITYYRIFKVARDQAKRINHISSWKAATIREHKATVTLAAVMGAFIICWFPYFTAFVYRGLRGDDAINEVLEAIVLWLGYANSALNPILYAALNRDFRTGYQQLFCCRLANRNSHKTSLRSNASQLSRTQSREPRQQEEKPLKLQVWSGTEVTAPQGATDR

Row | SMILES | IC50 ([1]; cho-k1) | IC50 ([2]; cho-k1) | IC50 ([3]; sf9) | IC50 (Histamine H2 receptor) | IC50 (Carbonic anhydrase 2) | IC50 ([3]; read-out: IC50) | Ki ([3]; read-out: Ki) | IC50 ([1]; read-out: IC50) | Ki ([1]; read-out: Ki) | IC50 ([2]; read-out: IC50) | Ki ([2]; read-out: Ki)
1 | OC(Cn1cncn1)(Cn1cncn1)c1ccc(F)cc1F [FLUCONAZOLE] | Not Active | Not Active | Not Active | Not Active | Not Active | – | – | – | – | – | –
2 | C[C@]12CCC(=O)C=C1CC[C@@H]1[C@@H]2CC[C@@]2(C)[C@H]1CC[C@]2(C)O [METHYLTESTOSTERONE] | Not Active | Not Active | Not Active | Not Active | Not Active | – | – | – | – | – | –
3 | O=c1oc2ccccc2c(O)c1Cc1c(O)c2ccccc2oc1=O [DICUMAROL] | Not Active | Not Active | Not Active | Not Active | Not Active | – | – | – | – | – | –
4 | N=C(N)NCCN1CCCCCCC1 [GUANETHIDINE] | Not Active | Not Active | Not Active | Not Active | Not Active | – | – | – | – | – | –
5 | Cc1cc(C2CCCCC2)n(O)c(=O)c1 [CICLOPIROX] | Not Active | Not Active | Not Active | Not Active | Not Active | – | – | – | – | – | –
6 | CCOc1ccc(NC(C)=O)cc1 [PHENACETIN] | Not Active | Not Active | Not Active | Not Active | Not Active | – | – | – | – | – | –
7 | NC1=NC(=O)C(c2ccccc2)O1 (stereo not drawn) [PEMOLINE] | Not Active | Not Active | Not Active | Not Active | Not Active | – | – | – | – | – | –
8 | C[C@H](CCC(=O)O)[C@H]1CC[C@H]2[C@@H]3[C@H](O)C[C@@H]4C[C@H](O)CC[C@]4(C)[C@H]3C[C@H](O)[C@]12C [CHOLIC ACID] | Not Active | Not Active | Not Active | Not Active | Not Active | – | – | – | – | – | –
9 | CC(C)C(Br)C(=O)NC(N)=O (stereo not drawn) [BROMISOVALUM] | Not Active | Not Active | Not Active | Not Active | Not Active | – | – | – | – | – | –
10 | C[C@H]1c2cccc(O)c2C(=O)C2=C(O)[C@]3(O)C(=O)C(C(N)=O)=C(O)[C@@H](N(C)C)[C@@H]3[C@@H](O)[C@@H]21.O [DOXYCYCLINE] | Not Active | Not Active | Not Active | Not Active | Not Active | – | – | – | – | – | –
11 | CNCCCN1c2ccccc2CCc2ccccc21 [DESIPRAMINE] | Not Active | Not Active | Not Active | Not Active | Not Active | – | – | – | – | – | –
12 | C[C@H](CS)C(=O)N1CCC[C@H]1C(=O)O [CAPTOPRIL] | Not Active | Not Active | Not Active | Not Active | Not Active | – | – | – | – | – | –
13 | CC(O)CO (stereo not drawn) [PROPYLENE GLYCOL] | Not Active | Not Active | Not Active | Not Active | Not Active | – | – | – | – | – | –
14 | Cc1c(O)c(=O)ccn1C [DEFERIPRONE] | Not Active | Not Active | Not Active | Not Active | Not Active | – | – | – | – | – | –
15 | CC(C)[C@@]1(NC(=O)[C@@H]2C[C@@H]3c4cccc5[nH]cc(c45)C[C@H]3N(C)C2)O[C@@]2(O)[C@@H]3CCCN3C(=O)[C@H](Cc3ccccc3)N2C1=O.CS(=O)(=O)O [DIHYDROERGOCRISTINE MESYLATE] | Not Active | Not Active | – | Not Active | Not Active | 1.99 nM | 0.747 nM | – | – | – | –
16 | C1CCC(C(CC2CCCCN2)C2CCCCC2)CC1 (stereo not drawn) [PERHEXILINE] | – | – | Not Active | Not Active | Not Active | – | – | 1090 nM | 785 nM | 3590 nM | 501 nM
17 | c1ccc2c(c1)c1cccc3ccc4cccc2c4c31 [BENZO[E]PYRENE] | Not Active | Not Active | Not Active | Not Active | Not Active | – | – | – | – | – | –
